Patent US20100137391A1, “Histamine H3 Agonist for use as Therapeutic Agent for a Lipid/Glucose Metabolic Disorder” (priority 2005, published 2010)

Key:
[1] = tested on: wild type mice; experiment: Measurement of amount of food intake (and body weight), wild type mice; type: in vivo
Description: (§1) Histamine H3 receptor knockout mice (hereinafter referred to as “H3RKO mice”) were produced by the method of Takahashi et al. (J. Clin. Invest, Vol. 110, p. 1791, 2002). The obtained knockout mice were subjected to back crossing with C57BL/6J over 5 generations. Six- to nine-month-old male litters were used in an acute drug administration test. On the other hand, 18- to 20-month-old mice whose parents were H3RKO mice or wild type mice (N5 of C57BL/6J) were used in a chronic drug administration test.
(§2) All mice were individually bred at 25° C., and light and dark were controlled every 12 hours. During breeding, water and feed were freely given to the mice. As such feed, CE2 (CLEA Japan, Inc.) was given to thin mice, and medium high fat diet (Oriental Bio Service Co., Ltd.) was given to DIO mice.
(§3) The concentration of each compound was set at 5 ml/kg.
(§4) The amount of food intake was measured based on the weight of feed at 19:00 and 23:00.

[2] = tested on: H3RKO mice; experiment: Measurement of amount of food intake (and body weight), H3RKO mice; type: in vivo
Description: as §1, §2, §3, §4

[3] = tested on: wild type mice
Description: as §1, §2, §3
(§5) Mice were divided into groups, depending on mean body weight and the amount of daily food intake before administration of the compound. The body weight and the amount of food intake were measured every day.
(§6) In the test using Thioperamide, mice were divided into 4 groups: a group in which a solvent was administered to C57BL/6J DiO mice at 9:00; a group in which 10 mpk Thioperamide was administered thereto at 9:00; a group in which a solvent was administered to C57BL/6J DiO mice at 17:00; and a group in which 10 mpk Thioperamide was administered thereto at 17:00. […] On the 10th day after the administration, such mice were left in a starvation state for 2 hours. Thereafter, blood was collected from the orbit of each mouse, and the glucose and insulin levels were measured.
(§7) A change in body weight was calculated by dividing a decrease in body weight by the body weight on day 0 at initiation of the test, and the calculated value was expressed as a percentage. The degree of obesity was measured using an NMR analyzer (Minispec; Bruker).

[4] = tested on: H3RKO mice; experiment: Anti-obesity test with Imetit, H3RKO mice; type: in vivo
Description: as §1, §2, §3, §5, §6, §7

[5] = tested on: C57BL/6J mice; experiment: Measurement of energy consumption (indirect calorimetry); type: in vivo; conditions: Imetit 5 mpk and 20 mpk vs vehicle
Description: Energy consumption was measured using Indirect calorimetry (Columbus Instrument). That is to say, C57BL/6J mice were acclimatized in a test chamber overnight, and VO2 (oxygen consumption) and VCO2 […] were then measured for 1 minute every 10 minutes. Sample air was collected every 10 minutes. RQ (respiratory quotient) was calculated by dividing […]. The test was carried out from 9:00 to 17:00. During the test, mice were allowed to freely ingest feed and water.

[6] = tested on: C57BL/6J DiO mice; experiment: Anti-obesity test with Thioperamide; type: in vivo; conditions: 10 mpk Thioperamide at 9:00 or 17:00; FIG. 6
Description: as §2, §3, §5, §6, §7

[7] = Wild type, 10th day after administration, 2 hours starvation, blood
[8] = Wild type, Imetit twice a day, NMR analyzer
[9] = H3RKO, 10th day after administration, 2 hours starvation, blood
[10] = H3RKO, Imetit twice a day, NMR analyzer

N=C(N)SCCc1c[nH]cn1 [Imetit, carbamimidothioic acid 2-(1H-imidazol-4-yl)ethyl ester]
change in body weight ([1]; FIG. 3): decreased depending on the number of doses | amount of food intake ([1]; oral administration, vs solvent control mice, FIG. 1): lower than that of control mice | change in body weight ([2]; FIG. 4): such a change in body weight was not observed | amount of food intake ([2]; oral administration, vs solvent control mice, FIG. 2): such a decrease in the amount of food intake was not observed | abnormal glucose tolerance [3]: improved | Glucose [3, 7]: 164.1 ± 6.4 mg/dL | Insulin [3, 7]: 4.7 ± 0.8 ng/mL | Fat (%) [3, 8]: 39.2 ± 2.0 % | Lean body mass (%) [3, 8]: 58.3 ± 1.6 % | insulin concentration in blood ([3]; together with fat-decreasing effect): decreased | body weight-decreasing effect ([4]; H3RKO mice, Imetit twice a day): such effect was not observed in H3RKO mice | Glucose [4, 9]: 166.7 ± 10.5 mg/dL | Insulin [4, 9]: 4.7 ± 0.9 ng/mL | Fat (%) [4, 10]: 46.3 ± 2.0% | Lean body mass (%) [4, 10]: 52.7 ± 1.4% | VO2 (oxygen consumption) ([5]; FIG. 8, 11): increases | VCO2 ([5]; FIG. 9, 11): increases | RQ (respiratory quotient) ([5]; FIG. 10, 11): decrease

S=C(NC1CCCCC1)N1CCC(c2cnc[nH]2)CC1 [Thioperamide]
body weight of fat mice [6]: tendency that the body weight of fat mice was increased
